# What was measured:
# [1] = target: T1, wild type oCOX-1 (Ovis aries, UniProt P05979); assay: Time-dependent IC50 COX inhibition assay; assay type: biochemical, ovine
# T1 construct: Ram seminal vesicles were purchased from Oxford Biomedical Research; tissue Oxford Biomedical Research; host or cells: ram seminal vesicles
# T1 sequence (P05979 25-600): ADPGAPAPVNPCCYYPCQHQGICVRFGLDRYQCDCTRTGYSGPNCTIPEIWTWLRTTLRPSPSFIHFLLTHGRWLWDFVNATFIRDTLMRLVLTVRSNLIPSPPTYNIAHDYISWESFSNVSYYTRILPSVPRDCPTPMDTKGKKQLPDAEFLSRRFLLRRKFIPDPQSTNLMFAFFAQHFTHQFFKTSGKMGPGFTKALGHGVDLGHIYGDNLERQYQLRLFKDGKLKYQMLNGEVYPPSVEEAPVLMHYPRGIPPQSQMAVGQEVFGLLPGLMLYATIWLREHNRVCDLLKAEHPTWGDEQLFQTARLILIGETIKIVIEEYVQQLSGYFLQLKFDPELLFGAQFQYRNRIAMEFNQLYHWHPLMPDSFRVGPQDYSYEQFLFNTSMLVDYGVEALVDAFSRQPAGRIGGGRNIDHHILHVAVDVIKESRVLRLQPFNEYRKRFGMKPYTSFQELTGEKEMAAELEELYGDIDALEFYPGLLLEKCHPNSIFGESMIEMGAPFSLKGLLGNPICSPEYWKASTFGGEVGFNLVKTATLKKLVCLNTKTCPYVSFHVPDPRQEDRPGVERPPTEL
# Description: These mutated genes were used to assemble baculoviral constructs for large-scale expression in Sf9 cells. Purification of the expressed COX-2 protein was performed through traditional cellular fractionation and classical column chromatography. Activity or inhibition assays were performed in 100 mM Tris-HCl buffer containing 500 μM phenol, with hematin-reconstituted protein. Quantification of cyclooxygenase activity was performed by monitoring substrate (arachidonate or oxygen) consumption in a thermostatted cuvette at 37° C. using a polarographic electrode with a 5300 oxygen monitor (Yellow Springs Instrument Co. Inc., Yellow Springs, Ohio, United States of America). All inhibitors and substrates were solubilized in dimethyl sulfoxide (DMSO). Activity or inhibition assays were performed in 100 mM Tris-HCl buffer containing 500 μM phenol, with hematin-reconstituted protein. Maximal reaction velocity data were obtained from the linear portion of the oxygen uptake curves, and the data were analyzed by nonlinear regression with Prism 4.0 (GraphPad Software, San Diego, Calif., United States of America).
# Time-dependent inhibition reactions were performed by pre-incubating the inhibitor and enzyme for 17 minutes at 25° C., followed by 3 minutes at 37° C. prior to the addition of 50 μM [1-^14C]-AA for 30 seconds at 37° C. Assays were terminated and analyzed for substrate consumption by thin layer chromatography as previously described (Kalgutkar et al., 2000a).
# Maximal reaction velocity data were obtained from the linear portion of the oxygen uptake curves, and the data were analyzed by nonlinear regression. Instantaneous inhibition assays were performed with substrate and inhibitor added prior the initiation of the reaction by addition of protein. […]
# Assays were terminated and analyzed for substrate consumption by thin layer chromatography. […] All reactions were performed with [1-^14C]-AA for 30 seconds at 37° C.; reactions were terminated and analyzed as described above. […]
# [2] = target: T2, mCOX-2^V349A (Mus musculus, UniProt Q05769, V335A); assay: Steady-state quenching of COX intrinsic fluorescence (apo-protein); assay type: binding, murine
# T2 construct: made in house; host or cells: Sf9 insect cells (baculovirus, pVL1393)
# T2 sequence (Q05769 18-604 V335A): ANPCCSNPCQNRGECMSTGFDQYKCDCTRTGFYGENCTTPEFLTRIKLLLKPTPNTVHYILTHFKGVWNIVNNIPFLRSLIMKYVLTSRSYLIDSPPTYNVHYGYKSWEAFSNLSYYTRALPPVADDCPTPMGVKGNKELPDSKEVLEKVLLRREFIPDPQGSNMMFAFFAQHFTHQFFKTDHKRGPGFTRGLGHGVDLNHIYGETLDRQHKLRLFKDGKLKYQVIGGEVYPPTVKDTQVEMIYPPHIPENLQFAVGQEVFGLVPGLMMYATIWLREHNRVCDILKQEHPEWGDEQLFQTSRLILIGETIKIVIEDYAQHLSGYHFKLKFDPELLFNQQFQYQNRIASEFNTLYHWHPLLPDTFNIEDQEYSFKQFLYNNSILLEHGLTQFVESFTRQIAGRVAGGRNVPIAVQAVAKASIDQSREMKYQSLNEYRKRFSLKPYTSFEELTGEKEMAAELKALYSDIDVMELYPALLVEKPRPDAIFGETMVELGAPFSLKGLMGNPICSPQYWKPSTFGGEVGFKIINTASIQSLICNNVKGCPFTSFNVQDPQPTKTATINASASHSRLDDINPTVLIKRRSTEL
# Description: Steady-state measurements were performed at 37° C. in a 3.5 ml fluorescence cuvette with continuous stirring. […] Data were collected over 240 or 360 seconds with 2-second integration times. The reversibility of quenching was analyzed in the same manner, with subsequent addition of 50 μM AA as competitor. The ligands were dissolved in DMSO before further dilution into buffer. The organic component in the buffer was below 0.4%.
# This assay provided a method to directly monitor the binding of INDO and DM-INDO to COXs. Various concentrations of INDO and DM-INDO were added to apo-proteins and the rate of fluorescence decrease was monitored over time. After the mixture reached equilibrium, 50 μM of AA was added as competitor to monitor the reversibility of binding. The kinetic data for quenching were analyzed in the same manner as those for inhibition. For clarity, the equilibrium constant for the first step of fluorescence quenching is referred to as Kd, and k2 and k−2 from the second step of quenching are represented by k′2 and k′−2, respectively.
compound,measurement,setting,value
"COc1ccc2c(c1)c(CC(=O)O)cn2C(=O)c1ccc(Cl)cc1 [DM-INDO, 2-Des-methylindomethacin]",inhibition of ovine COX-1,[1]; concentrations up to 16 μM,does not appear to be inhibited at all
same,inhibition in the time-dependent IC50 assay,[1]; wild type oCOX-1,less than 20%
same,IC50,"[1]; wild type oCOX-1, 20 min pre-incubation, then 50 μM AA for 30 s",> 16000 nM
same,k′−2^b,[2]; fluorescence increase from competition with 50 μM AA,0.046 ± 0.002 s⁻¹
same,Kd,[2]; fluorescence quenching,1400 ± 300 nM
same,k′2,[2]; fluorescence quenching,0.17 ± 0.04 s⁻¹
same,k′−2,[2]; fluorescence quenching (decay),0.045 ± 0.008 s⁻¹

# From patent US8168656B2, “Indoleacetic acid and indenacetic acid derivatives as therapeutic agents with reduced gastrointestinal toxicity” (Vanderbilt University, priority 2009, dated 2012)
